Measured values from patent US10005824B2, “Selective PYY compounds and uses thereof” (Novo Nordisk A/S, priority 2015, dated 2018).

Tests used:
[1] = target: T1, human Y2 receptor (Homo sapiens, UniProt P49146); assay: Scintillation proximity assay (SPA) receptor binding, Y2
T1 construct: expressed in transfected cells; host or cells: CHO-K1 (membrane preparation)
T1 sequence (P49146 1-381): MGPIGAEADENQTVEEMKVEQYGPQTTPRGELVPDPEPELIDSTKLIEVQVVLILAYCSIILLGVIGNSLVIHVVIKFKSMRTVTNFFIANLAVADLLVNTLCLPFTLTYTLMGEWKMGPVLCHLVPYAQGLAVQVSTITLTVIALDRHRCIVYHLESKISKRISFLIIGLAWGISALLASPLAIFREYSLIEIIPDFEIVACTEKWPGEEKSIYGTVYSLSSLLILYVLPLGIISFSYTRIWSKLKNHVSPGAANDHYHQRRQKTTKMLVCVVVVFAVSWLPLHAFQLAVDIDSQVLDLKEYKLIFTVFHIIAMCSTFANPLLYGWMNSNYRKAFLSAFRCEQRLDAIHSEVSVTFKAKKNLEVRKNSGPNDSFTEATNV
Protocol: (§1) The purpose of this example is to test the in vitro binding of the PYY compounds to the Y1, Y2, Y4 and Y5 receptor subtypes, respectively. The receptor binding affinity is a measure of affinity of a compound for the human Y1, Y2, Y4 and Y5 receptor subtypes, respectively.
(§2) Scintillation Proximity Assay (SPA)
(§3) NPY-Receptor Expressing Cell Lines.
All cells were cultured at +37° C. in a humidified atmosphere with 5% CO2. […] CHO-K1 cells stably expressing the human Y2 receptor (P49146, NPY2R_HUMAN, Uniprot) were cultured in DMEM F-12 with 10% FBS, 1% P/S, 150 μg/ml Hygromycin B and 10 μg/ml Puromycin antibiotic. CHO-K1 cells stably expressing the human Y4 receptor (P50391, NPY4R_HUMAN, Uniprot) were cultured in DMEM F-12 with 10% FBS, 1% P/S, 10 μg/ml Puromycin. HEK-293 cells stably expressing the human Y5 receptor (Q15761, NPY5R_HUMAN, Uniprot) were cultured in DMEM F-12 medium containing 10% FBS, 1% Penicillin-Streptomycin, 250 μg/ml G418 and 1 μg/ml puromycin. […]
(§4) Plates were sealed and incubated at +25° C. for 2 hours in a plate shaker set at 400 rpm and thereafter centrifuged at 1500 rpm for 10 minutes prior to reading of luminescence on a microplate scintillation and luminescence counter. […] Displacement of radioligand was measured as reduction in luminescence and IC50 values were calculated by nonlinear regression analysis of sigmoidal dose-response curves.

[2] = target: T2, human Y1 receptor (Homo sapiens, UniProt P25929); assay: Scintillation proximity assay (SPA) receptor binding, Y1
T2 construct: expressed in transfected cells; host or cells: BHK-21 clone 6-482-8, IPTG-induced (membrane preparation)
T2 sequence (P25929 1-384): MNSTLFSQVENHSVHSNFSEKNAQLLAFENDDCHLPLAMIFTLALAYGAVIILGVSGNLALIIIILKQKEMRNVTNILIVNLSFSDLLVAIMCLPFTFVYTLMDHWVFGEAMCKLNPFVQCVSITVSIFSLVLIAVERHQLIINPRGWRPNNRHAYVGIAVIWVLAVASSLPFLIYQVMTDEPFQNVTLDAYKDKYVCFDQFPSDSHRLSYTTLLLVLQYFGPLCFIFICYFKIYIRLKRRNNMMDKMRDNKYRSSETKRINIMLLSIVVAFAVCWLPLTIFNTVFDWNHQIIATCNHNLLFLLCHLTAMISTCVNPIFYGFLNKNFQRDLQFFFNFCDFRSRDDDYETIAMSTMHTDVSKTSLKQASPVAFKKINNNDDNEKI
Protocol: as §1, §2, §3
(§5) All cells were cultured at +37° C. in a humidified atmosphere with 5% CO2. […] CHO-K1 cells stably expressing the human Y2 receptor (P49146, NPY2R_HUMAN, Uniprot) were cultured in DMEM F-12 with 10% FBS, 1% P/S, 150 μg/ml Hygromycin B and 10 μg/ml Puromycin antibiotic. CHO-K1 cells stably expressing the human Y4 receptor (P50391, NPY4R_HUMAN, Uniprot) were cultured in DMEM F-12 with 10% FBS, 1% P/S, 10 μg/ml Puromycin. HEK-293 cells stably expressing the human Y5 receptor (Q15761, NPY5R_HUMAN, Uniprot) were cultured in DMEM F-12 medium containing 10% FBS, 1% Penicillin-Streptomycin, 250 μg/ml G418 and 1 μg/ml puromycin.
(§6) The homogenate was centrifuged at 35000 g using an ultracentrifuge for 10 minutes at +4° C. and the supernatant was discarded and fresh homogenization buffer added. Homogenization of the pellet was repeated a total of three times.
(§7) Human Y receptor SPA binding assay were performed in white 96-well plates in a total volume of 200 μl per well.
as §4

[3] = Pharmacokinetic study in minipigs after i.v. administration; assay type: in vivo; details: female, Göttingen, minipig, plasma, iv, 15 nmol/kg; read-out: Half-life (t½) (converted)
From the text: By terminal half-life is generally meant the period of time it takes to halve a certain plasma concentration, measured after the initial distribution phase.
After minimum 2 weeks of acclimatization two permanent central venous catheters were implemented in vena cava caudalis in each animal. After surgery the animals were in their normal individual pens during the pharmacokinetic experiments.
On day 1 the catheters are coupled to extension tubes, which will be removed at the end of day 1. […] Samples were kept on wet ice until centrifugation (10 min, 4° C., 1942 g).
Plasma concentration-time profiles was analysed by a non-compartmental pharmacokinetics analysis using Phoenix (Pharsight Inc., Mountain View, Calif., USA). Calculations were performed using individual concentration-time values from each animal.

[4] = target: T3, human Y4 receptor (Homo sapiens, UniProt P50391); assay: Scintillation proximity assay (SPA) receptor binding, Y4; details: Y4 Ki, membranes of CHO-K1 cells, [125I]-Pancreatic Polypeptide
T3 construct: expressed in transfected cells; host or cells: CHO-K1 (membrane preparation)
T3 sequence (P50391 whole entry): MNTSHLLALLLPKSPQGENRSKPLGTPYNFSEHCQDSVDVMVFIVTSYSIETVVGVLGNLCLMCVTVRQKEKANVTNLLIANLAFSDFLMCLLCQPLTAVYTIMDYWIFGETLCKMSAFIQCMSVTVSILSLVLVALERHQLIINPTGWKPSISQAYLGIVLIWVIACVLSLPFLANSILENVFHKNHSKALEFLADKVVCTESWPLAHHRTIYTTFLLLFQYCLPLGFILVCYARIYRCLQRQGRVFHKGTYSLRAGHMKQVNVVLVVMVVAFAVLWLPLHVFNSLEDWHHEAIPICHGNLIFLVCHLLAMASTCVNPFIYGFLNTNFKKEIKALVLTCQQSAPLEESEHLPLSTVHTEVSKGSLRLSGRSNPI
Protocol: as §1, §2, §3, §5, §6, §7, §4

SMILES	Ki [1] [µM]	Ki [2] [µM]	half-life [3] [h]	Ki [4] [µM]
CC(C)CC(=O)N[C@@H](CCCNC(=N)N)C(=O)N1CCC[C@H]1C(=O)N[C@@H](CCC(=O)O)C(=O)N[C@@H](CCCCNC(=O)CC[C@H](NC(=O)CCCCCCCCCCCCCCCCC(=O)O)C(=O)O)C(=O)N1CCC[C@H]1C(=O)N[C@H](C(=O)N[C@@H](CCC(=O)O)C(=O)N[C@@H](CC(=O)O)C(=O)N[C@@H](C)C(=O)N[C@@H](CO)C(=O)N1CCC[C@H]1C(=O)N[C@@H](CCC(=O)O)C(=O)N[C@@H](CCC(=O)O)C(=O)N[C@@H](CC(C)C)C(=O)N[C@@H](CCC(N)=O)C(=O)N[C@@H](CCCNC(=N)N)C(=O)N[C@@H](Cc1ccc(O)cc1)C(=O)N[C@@H](Cc1ccc(O)cc1)C(=O)N[C@H](C(=O)N[C@@H](CO)C(=O)N[C@@H](CC(C)C)C(=O)N[C@@H](CCCNC(=N)N)C(=O)N[C@@H](Cc1c[nH]cn1)C(=O)N[C@@H](Cc1ccc(O)cc1)C(=O)N[C@@H](Cc1ccc(O)cc1)C(=O)N[C@@H](CC(N)=O)C(=O)N[C@@H](Cc1c[nH]c2ccccc12)C(=O)N[C@@H](CC(C)C)C(=O)N[C@H](C(=O)N[C@@H](CCCNC(=N)N)C(=O)N[C@@H](CCC(N)=O)C(=O)N[C@@H](CCCNC(=N)N)C(=O)N[C@@H](Cc1ccc(O)cc1)C(N)=O)[C@@H](C)O)C(C)C)[C@@H](C)O [Compound 44, N{alpha-4}-(3-Methylbutanoyl)-N{Epsilon-7}-[(4S)-4-carboxy-4-(17-carboxy-heptadecanoylamino)butanoyl]-[Arg4,Lys7,Thr9,Gln18,Val22,Tyr28,Trp30,Leu31]hPYY(4-36)]	0.00033	> 10	–	–
CC(C)CC(=O)N[C@@H](CCCNC(=N)N)C(=O)N1CCC[C@H]1C(=O)N[C@@H](CCC(=O)O)C(=O)N[C@@H](C)C(=O)N1CCC[C@H]1C(=O)NCC(=O)N[C@@H](CCCCNC(=O)CC[C@H](NC(=O)COCCOCCNC(=O)CC[C@H](NC(=O)CCCCCCCCCCCCCCCCC(=O)O)C(=O)O)C(=O)O)C(=O)N[C@@H](CC(=O)O)C(=O)N[C@@H](C)C(=O)N[C@@H](CO)C(=O)N1CCC[C@H]1C(=O)N[C@@H](CCC(=O)O)C(=O)N[C@@H](CCC(=O)O)C(=O)N[C@@H](CC(C)C)C(=O)N[C@@H](CCC(N)=O)C(=O)N[C@@H](CCCNC(=N)N)C(=O)N[C@@H](Cc1ccc(O)cc1)C(=O)N[C@@H](Cc1ccc(O)cc1)C(=O)N[C@@H](CCC(=O)O)C(=O)N[C@@H](CO)C(=O)N[C@@H](CC(C)C)C(=O)N[C@@H](CCCNC(=N)N)C(=O)N[C@@H](Cc1c[nH]cn1)C(=O)N[C@@H](Cc1ccc(O)cc1)C(=O)N[C@@H](Cc1ccc(O)cc1)C(=O)N[C@@H](CC(N)=O)C(=O)N[C@@H](Cc1c[nH]c2ccccc12)C(=O)N[C@@H](CC(C)C)C(=O)N[C@H](C(=O)N[C@@H](CCCNC(=N)N)C(=O)N[C@@H](CCC(N)=O)C(=O)N[C@@H](CCCNC(=N)N)C(=O)N[C@@H](Cc1ccc(O)cc1)C(N)=O)[C@@H](C)O [Compound 50, N{alpha-4}-(3-Methylbutanoyl)-N{Epsilon-10}-[(4S)-4-carboxy-4-[[2-[2-[2-[[(4S)-4-carboxy-4-(17-carboxyheptadecanoylamino)butanoyl]amino]ethoxy]ethoxy]-acetyl]amino]butanoyl]-[Arg4,Lys10,Gln18,Glu22,Tyr28,Trp30,Leu31]-PYY(4-36)]	–	> 10	94	> 10
CC(C)CC(=O)N[C@@H](CCCNC(=N)N)C(=O)N1CCC[C@H]1C(=O)N[C@@H](CCC(=O)O)C(=O)N[C@@H](C)C(=O)N1CCC[C@H]1C(=O)N1CCC[C@H]1C(=O)N[C@@H](CCCCNC(=O)CC[C@H](NC(=O)COCCOCCNC(=O)CC[C@H](NC(=O)CCCCCCCCCCCCCCCS(=O)(=O)O)C(=O)O)C(=O)O)C(=O)N[C@@H](CC(=O)O)C(=O)N[C@@H](C)C(=O)N[C@@H](CO)C(=O)N1CCC[C@H]1C(=O)N[C@@H](CCC(=O)O)C(=O)N[C@@H](CCC(=O)O)C(=O)N[C@@H](CC(C)C)C(=O)N[C@@H](CCC(N)=O)C(=O)N[C@@H](CCCNC(=N)N)C(=O)N[C@@H](Cc1ccc(O)cc1)C(=O)N[C@@H](Cc1ccc(O)cc1)C(=O)N[C@@H](C)C(=O)N[C@@H](CO)C(=O)N[C@@H](CC(C)C)C(=O)N[C@@H](CCCNC(=N)N)C(=O)N[C@@H](Cc1c[nH]cn1)C(=O)N[C@@H](Cc1ccc(O)cc1)C(=O)N[C@@H](Cc1ccc(O)cc1)C(=O)N[C@@H](CC(N)=O)C(=O)N[C@@H](Cc1c[nH]c2ccccc12)C(=O)N[C@@H](CC(C)C)C(=O)N[C@H](C(=O)N[C@@H](CCCNC(=N)N)C(=O)N[C@@H](CCC(N)=O)C(=O)N[C@@H](CCCNC(=N)N)C(=O)N[C@@H](Cc1ccc(O)cc1)C(N)=O)[C@@H](C)O [Compound 69, N{alpha-4}-(3-Methylbutanoyl)-N{Epsilon-10}-[(4S)-4-carboxy-4-[[2-[2-[2-[[(4S)-4-carboxy-4-(16-sulfohexadecanoylamino)butanoyl]amino]ethoxy]-ethoxy]acetyl]amino]butanoyl]-[Arg4,Pro9,Lys10,Gln18,Tyr28,Trp30,Leu31]-PYY-(4-36)]	–	> 10	64	5.69
